In brackets after ≈: the same amount, converted by molar mass. Activity calls are given as the source filed them. No cut-off for these calls is given here.
Columns and labels:
Staphylococcus aureus [1] = assay: Antibacterial activity against methicillin-resistant Staphylococcus aureus after 20 hrs; format: functional
Staphylococcus aureus [2] = assay: Antibacterial activity against Staphylococcus aureus Smith after 20 hrs; format: functional
Enterococcus faecalis = assay: Antibacterial activity against Enterococcus faecalis after 20 hrs; format: functional
Bacillus subtilis = assay: Antibacterial activity against Bacillus subtilis after 20 hrs; format: functional
Streptococcus pneumoniae = assay: Antibacterial activity against Streptococcus pneumoniae up to 1.4 mM after 20 hrs; format: functional, organism-based
Haemophilus influenzae = assay: Antibacterial activity against Haemophilus influenzae up to 1.4 mM after 20 hrs; format: functional, organism-based
Escherichia coli = assay: Antibacterial activity against Escherichia coli up to 1.4 mM after 20 hrs; format: functional, organism-based
Candida albicans = assay: Antifungal activity against Candida albicans up to 1.4 mM after 24 hrs; format: functional, organism-based

MIC (Staphylococcus aureus [2]) [µM] | MIC (Enterococcus faecalis) [µM] | MIC (Bacillus subtilis) [µM] | SMILES | MIC (Staphylococcus aureus [1]) [µM] | Activity (Streptococcus pneumoniae) | Activity (Haemophilus influenzae) | Activity (Escherichia coli) | Activity (Candida albicans)
– | – | – | C/C=C/[C@@H]1C=C[C@@H]2C[C@@H](C)CC[C@@H]2[C@]1(C)C(=O)C1=C(O)C(C(C)O)N(C)C1=O (some centres undefined) [CISSETIN] | 10 (≈ 3.88 µg/mL) | – | – | – | –
1400 (≈ 482 µg/mL) | 1400 (≈ 482 µg/mL) | 400 (≈ 138 µg/mL) | C/C=C/[C@H]1C(C)=C[C@H]2C[C@H](C)[C@H](O)C[C@H]2[C@]1(C)/C=C(C)/C=C/C(=O)O [PANNOMYCIN] | – | inactive | inactive | inactive | inactive
– | – | – | C/C=C/[C@@H]1C(C)=C[C@@H]2CC[C@@H](C)C[C@@H]2[C@]1(C)C(=O)C1=C(O)C(CO)N(C)C1=O (some centres undefined) | 12 (≈ 4.65 µg/mL) | – | – | – | –

Reference: ChEMBL document CHEMBL1151804, “Antisense-guided isolation and structure elucidation of pannomycin, a substituted cis-decalin from Geomyces pannorum” (2009)
